Holding throughout (test): NCI-60 cell line screen, 48 h
Assay [1] has as its system MALME-3M melanoma.
Assay [2] has as its system OVCAR-5 ovarian.
Assay [3] concerns EKVX NSCLC.
The test system of assay [4] is HS 578T breast.
The subject of assay [5] is RXF 393 renal.
The test system of assay [6] is 786-0 renal.
Assay [7] concerns M14 melanoma.
Assay [8] deals with SN12C renal.
Assay [9] relates to CAKI-1 renal.
The subject of assay [10] is SNB-19 CNS.
In assay [11] the test system is UO-31 renal.
Assay [12] has as its system MDA-N.

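Grown in 96-well plates, cells were treated for 48 hours with each compound at five concentrations. Insufficient inhibition: endpoint recorded as highest concentration tested. At the GI50, growth is halved. Definition used: TGI = concentration required for complete inhibition of growth.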 Where only a bound is given, the exact number is not on record here.

Regarding `COCN1C(=O)[C@@H]2CCCN2C(=O)c2cc([N+](=O)[O-])ccc21`, the TGI was over 100 µM in [1]; over 100 µM in assay [2]; over 100 µM in assay [3]; over 100 µM in assay [4]; 39.9 µM in [5]; over 100 µM in [6]. For the same compound, the TGI in assay [7], in [8], in assay [9], in [10] and in [11] was over 100 µM each time.

For the compound `CCN(CC)CCNc1ccc(C)c2sc3ccc(O)cc3c(=O)c12`, the TGI was found to be 2.38 µM in assay [1]; 9.3 µM in assay [2]; 25.9 µM in assay [3]; 5.82 µM in assay [5]; 2.01 µM in assay [6]; 2.48 µM in assay [7]. For the same compound, the TGI in [8] stood at 1.85 µM; in assay [9] it was 21.8 µM; in [10], 15.6 µM; in [11] it was 3.82 µM.

As for `COc1ccc2c(c1)c1cc(OC)ccc1n2CCCCOc1ccc(-c2c3ccccc3c(-c3ccc(OCCCCn4c5ccc(OC)cc5c5cc(OC)ccc54)cc3)c3ccccc23)cc1`, the TGI in assay [1], in assay [2], in [3], in [7], in [8] and in assay [9] was over 100 µM throughout. The TGI in assay [10] and in assay [11] was over 100 µM throughout.

Take `CC1OC(=O)c2ccccc2NC1=O` (stereo unspecified): the TGI in assay [1], in assay [2], in assay [3], in assay [4], in assay [5] and in assay [6] was over 100 µM in each case. Further, the TGI in [7], in assay [8], in [9], in assay [10] and in [11] was over 100 µM in each case.

Consider `CN1CCN(c2ccc3[nH]c(C4=C(O)c5nc(CO)n(C)c5C(=O)C4=O)nc3n2)CC1`, for which the TGI in [1] is over 100 µM; in assay [2] it was over 100 µM; in assay [3], over 100 µM; in assay [4], over 100 µM; in assay [5] it was 91.4 µM; in assay [6] it was over 100 µM. Moreover, the TGI in [7], in [8], in [9], in assay [10] and in assay [11] was over 100 µM throughout.

Consider `O=C(CCN1CCCC1)Nc1ccc2c(NCCCc3ccccc3)c3ccccc3nc2c1`, for which the GI50 is 1.58 µM in assay [1]; 1.12 µM in assay [2]; 1.21 µM in assay [3]; 0.918 µM in assay [5]; 0.815 µM in [8]; 14.8 µM in assay [9]. Besides, the GI50 in assay [10] was 0.729 µM; in [11], 1.6 µM. For the same compound, the TGI in assay [1] was determined as 3.12 µM; in assay [2], 2.4 µM; in [3], 2.56 µM; in assay [5] it was 2.2 µM; in assay [8], 2.21 µM; in [9] it was 28 µM. Also, the figures for the TGI in assay [10] and in [11] were 2 µM and 3.16 µM, respectively.

On to `CSC(=NCCN=C(NS(=O)(=O)c1ccc(Cl)cc1)SC)NS(=O)(=O)c1ccc(Cl)cc1`, for which the TGI in assay [1], in assay [2], in assay [3], in assay [12], in assay [6] and in assay [7] was over 100 µM each time. Further, the TGI in [8], in assay [9], in assay [10] and in assay [11] was over 100 µM in each case.

As to `CC(=O)c1cn(-c2ccc(Cl)cc2)c(=O)c2c(N)n[nH]c12`, the TGI in assay [3], in [4], in [5], in [6], in assay [9] and in [10] was over 100 µM each time. This compound showed a TGI in [11] of over 100 µM.

Regarding `C/C(=N\Nc1ccc([N+](=O)[O-])cc1)C(=O)N(C)Nc1ccccc1`, the TGI in assay [3], in assay [5], in assay [6], in assay [7], in assay [8] and in assay [10] was over 100 µM in each case. For the same compound, the TGI in [11] is over 100 µM.

For `COC(=O)C1(Cc2cccc(Cl)c2)CCCCCCN1C(=O)c1ccccc1` (stereo unspecified), the TGI in [1] worked out at 25.3 µM; in assay [2], 44.7 µM; in assay [3] it was 26.8 µM; in [12], 30.4 µM; in [6], 26.3 µM; in [7] it was 45 µM. The TGI in assay [8] worked out at 28.1 µM; in [10] it was 31.2 µM; in assay [11] it was 29.3 µM.

Consider `CC(=O)Oc1c(OC(C)=O)c(-c2ccc(O)c(O)c2)c(O)c(O)c1-c1ccc(O)cc1`, for which the values for the GI50 in [1], in [5] and in [8] were 51.3 µM, over 100 µM and 73.8 µM, respectively. In addition, the TGI in assay [1], in [2], in [3], in assay [5], in assay [8] and in assay [9] was over 100 µM throughout. For the same compound, the TGI in assay [10] and in [11] was over 100 µM throughout.

For the compound `CCN(CC)CCCNC(=O)Cc1ccccc1Nc1c(Cl)cccc1Cl`, the TGI is 23.5 µM in [2]; 28.2 µM in assay [3]; 30.6 µM in assay [5]; 21.8 µM in assay [6]; 7.88 µM in assay [7]; 28.5 µM in [8]. Moreover, the TGI in [10] is 31.8 µM; in [11], 23.8 µM.

For the compound `CSCCC(NC(c1ccccc1)c1ccccc1)[P+](=O)O` (stereo unspecified), the TGI in [1], in [2], in assay [3], in assay [4], in [6] and in assay [7] was over 100 µM throughout. For the same compound, the TGI in [8], in assay [9], in assay [10] and in assay [11] was over 100 µM throughout.

In the case of `CC(C)[Si]1(C(C)C)OCC2OC(n3ccc(=O)[nH]c3=O)C(O)(CO)C2O[Si](C(C)C)(C(C)C)O1` (stereo unspecified), the TGI in [1] turned out to be 28.4 µM; in assay [2], 29.5 µM; in assay [3], 27.4 µM; in assay [4] it was 11.4 µM; in assay [5] it was 30.4 µM; in assay [6], 29.3 µM. Also, the TGI was 34.8 µM in [7]; 29.8 µM in assay [8]; 29.6 µM in assay [9]; 28.9 µM in assay [10]; 22.2 µM in assay [11].

Consider `COc1cc(CC2c3cc(OC)c(OC)cc3CCN2C)c(Oc2cc3c(cc2OC)-c2c(OC)c(OC)c(OC)c4c2C(C3)N(C)CC4)cc1OC` (stereo unspecified), for which the TGI turned out to be 6.67 µM in [1]; 30.6 µM in [2]; 31.1 µM in assay [3]; 14.9 µM in assay [5]; 21.5 µM in assay [6]; 5.76 µM in assay [7]. In addition, the TGI in [8] was 28.6 µM; in assay [9], 32.1 µM; in [10], 43.3 µM; in [11], 22.1 µM.

In the case of `CCN1/C(=C/C(C)=C/c2sc3ccccc3[n+]2CC)Sc2ccccc21`, the TGI in assay [1] worked out at 1.71 µM; in assay [2], 1.73 µM; in assay [3] it was 1.4 µM; in assay [5] it was 1.59 µM; in [7], 0.847 µM; in assay [9] it was 0.693 µM. The TGI worked out at 0.0976 µM in assay [10] and 1.47 µM in assay [11].

For `Nc1ccn(C2OC(COP(=O)(O)Oc3ccccc3)C(O)C2O)c(=O)n1` (stereo unspecified), the TGI in [1], in assay [2], in [3], in [5], in assay [8] and in assay [9] was over 100 µM each time. Further, the TGI in assay [10] and in assay [11] was over 100 µM throughout.

For the compound `CNC(=O)CN1CC(=O)N(C)C(=O)C1`, the TGI in assay [1], in [2], in assay [5], in [7], in assay [9] and in assay [10] was over 100 µM throughout. This compound also gave a TGI in [11] of over 100 µM.

For the compound `C=C1C(=O)OC2/C=C(\C)C(O)/C=C\C(C)(O)CC(OC(=O)/C(C)=C/C)C12` (stereo unspecified), the TGI in assay [1] was 40.4 µM; in assay [2] it was over 100 µM; in assay [3], 77.9 µM; in [5], 42.6 µM; in assay [6], 38 µM; in assay [7], 32.7 µM. The TGI was 53.5 µM in assay [8], over 66.7 µM in assay [9], 98.8 µM in [10] and over 100 µM in [11].

As for `CC(=O)Nc1ccc(-c2nnc(SCC(=O)Nc3ccc(C)cc3)o2)cc1`, the TGI was 30.8 µM in [1]; 39.8 µM in assay [2]; 33.2 µM in assay [5]; 33.4 µM in assay [6]; 29.8 µM in assay [7]; 30 µM in [8]. The TGI is 24.9 µM in assay [9] and over 100 µM in assay [11].

For the origin of these results see PubChem BioAssay (NCI).
